System: HeLa cells expressing GFP-LC3
Test: GFP-LC3 puncta in the presence of specific inhibitors
Format: cell-based, human
Conditions: LP-4 10 μM, 4 hours, CC 10 μM, STO-609 25 μM, BM 10 μM
Protocol: GFP-LC3 puncta formation was quantified as previously described^15. In brief, HeLa cells expressing GFP-LC3 were treated with N-desmethyldauricine (LP-4, 10 μM) in the presence of AMPK inhibitor, compound C (CC, 10 μM), CaMKK-β inhibitor, STO-609 (25 μM) or Calcium chelator, BAPTA/AM (BM, 10 μM) for 4 hours. The cells were then fixed in 4% paraformaldehyde for 20 minutes at room temperature and then rinsed with PBS. Slides were mounted with FluorSave™ mounting media (Calbiochem) and examined by fluorescence microscopy. To quantify for autophagy, the percentage of cells with punctate GFP-LC3 fluorescence was calculated by counting the number of the cells with punctate GFP-LC3 fluorescence in GFP-positive cells. A minimum of 150 cells from 3 randomly selected fields was scored.

| Compound | N-desmethyldauricine-induced GFP-LC3 puncta formation in presence of inhibitor |
| --- | --- |
| CC(=O)OCOC(=O)CN(CC(=O)OCOC(C)=O)c1ccccc1OCCOc1ccccc1N(CC(=O)OCOC(C)=O)CC(=O)OCOC(C)=O [BAPTA/AM] | significant reduction |
| O=C(O)c1ccc2c3c1cccc3c(=O)n1c3ccccc3nc21 [STO-609] | significant reduction |
| c1cc(-c2cnn3cc(-c4ccc(OCCN5CCCCC5)cc4)cnc23)ccn1 [compound C] | significant reduction |

Reference: patent US20150133492A1, “N-desmethyldauricine, A Novel Autophagic Enhancer for Treatment of Cancers and Neurodegenerative Conditions Thereof” (Macau University of Science and Technology, priority 2013, published 2015)
